Test results as given in PubChem BioAssay (NCI).
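Five concentrations, 48 hours, 96-well plates. TGI: concentration producing complete growth inhibition.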

How the values were obtained:
Assay in all cases: inhibition of tumour cell growth, NCI panel, 48 h
[1] = tested on: DU-145 prostate
[2] = tested on: NCI-H23 lung
[3] = tested on: SK-MEL-28 melanoma
[4] = tested on: HS 578T breast
[5] = tested on: COLO 205 colon
[6] = tested on: HL-60(TB) leukemia
[7] = tested on: NCI/ADR-RES ovarian
[8] = tested on: HT29 colon
[9] = tested on: A549 NSCLC
[10] = tested on: SF-295 CNS
[11] = tested on: SNB-19 CNS
[12] = tested on: CCRF-CEM leukemia
[13] = tested on: EKVX NSCLC
[14] = tested on: A498 renal
[15] = tested on: MALME-3M melanoma
[16] = tested on: OVCAR-8 ovarian
[17] = tested on: IGROV1 ovarian
[18] = tested on: TK-10 renal
[19] = tested on: NCI-H226 lung
[20] = tested on: PC-3 prostate
[21] = tested on: SK-OV-3 ovarian
[22] = tested on: NCI-H460 lung
[23] = tested on: K-562 leukemia
[24] = tested on: SK-MEL-5 melanoma
[25] = tested on: RPMI-8226 leukemia
[26] = tested on: 786-0 renal
[27] = tested on: T-47D breast
[28] = tested on: MDA-MB-435
[29] = tested on: UO-31 renal
[30] = tested on: MOLT-4 leukemia
[31] = tested on: KM12 colon
[32] = tested on: RXF 393 renal
[33] = tested on: HCC-2998 colon
[34] = tested on: M14 melanoma
[35] = tested on: OVCAR-4 ovarian
[36] = tested on: U251 CNS
[37] = tested on: SR leukemia
[38] = tested on: SN12C renal
[39] = tested on: UACC-257 melanoma
[40] = tested on: MDA-N
[41] = tested on: NCI-H522 lung
[42] = tested on: LOX IMVI melanoma
[43] = tested on: SNB-75 CNS
[44] = tested on: OVCAR-3 ovarian
[45] = tested on: SK-MEL-2 melanoma
[46] = tested on: ACHN renal
[47] = tested on: MDA-MB-231 breast
[48] = tested on: HCT-15 colon
[49] = tested on: BT-549 breast
[50] = tested on: SF-268 CNS
[51] = tested on: SW-620 colon
[52] = tested on: MCF7 breast
[53] = tested on: HOP-62 NSCLC
[54] = tested on: OVCAR-5 ovarian
[55] = tested on: HCT-116 colon
[56] = tested on: UACC-62 melanoma
[57] = tested on: CAKI-1 renal
[58] = tested on: HOP-92 NSCLC
[59] = tested on: SF-539 CNS
[60] = tested on: M19-MEL melanoma
[61] = tested on: DMS 114 small cell lung
[62] = tested on: SNB-78 CNS
[63] = tested on: LXFL 529 NSCLC
[64] = tested on: KM20L2 colon
[65] = tested on: DMS 273 small cell lung
[66] = tested on: HOP-18 NSCLC
[67] = tested on: XF 498 CNS

Measured: TGI

COc1ccc2[nH]cc(CN3CCC(CO)(c4ccccc4)CC3)c2c1
37 µM: [42]
35.4 µM: [31]
72.2 µM: [29]
58.8 µM: [53]
92.2 µM: [56]
37.2 µM: [39]
40.3 µM: [5]
70.9 µM: [4]
46.5 µM: [27]
87.6 µM: [43]
39.8 µM: [10]
57.3 µM: [9]
38.3 µM: [40]
35.5 µM: [41]
80.9 µM: [47]
47.6 µM: [28]
24 µM: [13]
55.3 µM: [45]
62.3 µM: [15]
34.8 µM: [50]
37.9 µM: [52]
35.8 µM: [55]
27.1 µM: [24]
28.6 µM: [26]
48.5 µM: [6]
52.8 µM: [37]
43.1 µM: [23]
33.3 µM: [3]
75.1 µM: [12]
47.8 µM: [46] | [51]
66 µM: [25]
46.2 µM: [33]
32.3 µM: [34]
56.9 µM: [30]
not listed: [57] | [58] | [59] | [60] | [61] | [62] | [63] | [64] | [65] | [66] | [67]
> 100 µM: all other assays above

Cc1ccc(Cc2nn(C)c(=O)n2-n2cccc2)cc1
not listed: [2] | [6] | [58] | [59] | [60] | [61] | [62] | [63] | [64] | [65] | [66] | [67]
> 100 µM: all other assays above

COC(=O)c1c2c(cc3c1CC1(C3)Cc3ccc4c(c3C1=O)CCC4)CCC2 (stereo not given)
6.19 µM: [41]
> 22.5 µM: [7]
40.1 µM: [33]
> 42.9 µM: [49]
> 56.1 µM: [26]
> 24.4 µM: [20]
> 77.4 µM: [21]
9.36 µM: [59]
3.22 µM: [28]
> 66.7 µM: [52]
> 82 µM: [16]
> 70.6 µM: [58]
> 25.9 µM: [43]
3.14 µM: [32]
18.6 µM: [34]
> 62.2 µM: [55]
6.62 µM: [4]
> 49.7 µM: [14]
21.2 µM: [57]
> 92 µM: [35]
> 28.8 µM: [10]
> 58.1 µM: [42]
> 28.3 µM: [6]
> 25.3 µM: [56]
> 81.8 µM: [12]
> 30 µM: [19] | [53]
8.45 µM: [8]
20.4 µM: [24]
2.81 µM: [40]
> 72.6 µM: [25]
27 µM: [45]
> 35.3 µM: [18]
> 45.5 µM: [15]
> 31.6 µM: [2] | [46]
> 21.9 µM: [37]
> 94.3 µM: [36]
62.1 µM: [11]
8.88 µM: [47]
> 44.6 µM: [29]
> 31.5 µM: [44]
not listed: [5] | [60] | [61] | [62] | [63] | [64] | [65] | [66] | [67]
> 100 µM: all other assays above

CCOP(=O)(OCC)/C(C#N)=C/c1cc(O)ccc1O
not listed: [1] | [4] | [6] | [7] | [9] | [12] | [13] | [16] | [18] | [19] | [20] | [24] | [26] | [27] | [28] | [30] | [33] | [37] | [38] | [40] | [41] | [42] | [47] | [48] | [49] | [51] | [52] | [57] | [65] | [66] | [67]
> 100 µM: all other assays above

CN(C)c1ccc(/C=C2\N=C(c3ccccc3)N(/N=C3\C(=O)Nc4ccccc43)C2=O)cc1
45.4 µM: [28]
65.5 µM: [44]
81 µM: [5]
not listed: [19] | [25] | [60] | [61] | [62] | [63] | [64] | [65] | [66] | [67]
> 100 µM: all other assays above

C[C@]12CC/C(=N\OC(=O)Nc3ccccc3)C=C1CC[C@@H]1C2CC[C@@]2(C)C1CC[C@@H]2OC(=O)Nc1ccccc1 (stereo not given in full)
30.8 µM: [38]
27.3 µM: [67]
19.8 µM: [57]
14.2 µM: [48]
not listed: [1] | [3] | [4] | [7] | [15] | [19] | [20] | [27] | [28] | [32] | [37] | [39] | [40] | [41] | [47] | [49] | [52] | [53]
> 100 µM: all other assays above

COCN1C(=O)[C@@H]2CCCN2C(=O)c2cc(Cl)ccc21
not listed: [6] | [12] | [19] | [44] | [59] | [60] | [61] | [62] | [63] | [64] | [65] | [66] | [67]
> 100 µM: all other assays above
